Measured values published in patent US20240109917A1 (ACTELION PHARMACEUTICALS LTD, priority 2020, published 2024).

Target: PDGFRβ (Rattus norvegicus (Rat), UniProt Q05030)
Assay: PDGFRβ Cellular Assay (PDGFRb P-Y751 HTRF in A10 cells stimulated with PDGF-BB)
Type: cell-based
Details: read-out: PDGFR Cellular IC50
In short: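 Rat A10 cells, plated overnight, were treated with compound for 3 hours, then stimulated with PDGF-BB (working stock 100 ng/mL in 10% FBS medium). After lysis, PDGFRβ P-Y751 was detected by HTRF.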

PDGFRβ, sequence (Q05030 32-1097): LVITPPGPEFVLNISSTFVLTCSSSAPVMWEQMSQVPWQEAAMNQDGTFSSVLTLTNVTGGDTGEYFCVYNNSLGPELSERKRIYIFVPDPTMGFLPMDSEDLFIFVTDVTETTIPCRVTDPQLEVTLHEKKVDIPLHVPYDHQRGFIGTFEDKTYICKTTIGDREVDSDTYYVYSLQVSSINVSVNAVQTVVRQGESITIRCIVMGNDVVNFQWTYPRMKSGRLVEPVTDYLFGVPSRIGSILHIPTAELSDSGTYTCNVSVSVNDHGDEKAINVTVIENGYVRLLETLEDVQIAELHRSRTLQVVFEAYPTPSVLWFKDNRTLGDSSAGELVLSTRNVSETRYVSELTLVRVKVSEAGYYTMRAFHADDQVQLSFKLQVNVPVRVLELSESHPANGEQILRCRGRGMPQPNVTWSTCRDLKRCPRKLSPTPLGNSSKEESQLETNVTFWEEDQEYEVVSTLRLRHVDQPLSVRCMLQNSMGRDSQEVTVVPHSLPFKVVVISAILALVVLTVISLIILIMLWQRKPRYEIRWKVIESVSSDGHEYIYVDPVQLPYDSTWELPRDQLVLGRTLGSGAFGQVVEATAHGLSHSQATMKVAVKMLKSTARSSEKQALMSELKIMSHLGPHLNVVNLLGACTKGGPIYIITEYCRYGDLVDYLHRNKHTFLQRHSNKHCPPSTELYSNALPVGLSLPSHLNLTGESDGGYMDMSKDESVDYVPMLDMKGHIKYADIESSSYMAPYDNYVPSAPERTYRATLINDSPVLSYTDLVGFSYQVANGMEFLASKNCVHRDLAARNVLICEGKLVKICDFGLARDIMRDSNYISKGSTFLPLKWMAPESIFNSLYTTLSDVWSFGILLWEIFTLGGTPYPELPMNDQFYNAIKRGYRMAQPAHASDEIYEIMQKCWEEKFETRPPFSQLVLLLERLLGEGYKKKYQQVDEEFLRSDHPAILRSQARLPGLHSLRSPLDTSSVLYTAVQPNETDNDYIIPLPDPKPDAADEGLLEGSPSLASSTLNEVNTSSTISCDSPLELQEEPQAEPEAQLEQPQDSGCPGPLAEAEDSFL

SMILES: Cc1ncc(NC(=O)CN(C)C2CCOCC2)cc1NC(=O)c1cnn2cc(-c3cnn(CC#N)c3)sc12 [Example 299, 2-(1-(cyanomethyl)-1H-pyrazol-4-yl)-N-(2-methyl-5-(2-(methyl(tetrahydro-2H-pyran-4-yl)amino)acetamido)pyridin-3-yl)pyrazolo[5,1-b]thiazole-7-carboxamide]
- IC50: 102 nM

SMILES: Cc1ncc(NC(=O)CN2CC(C)(C)C2)cc1NC(=O)c1cnn2cc(-c3cc[nH]c3)sc12 [Example 285, N-(5-(2-(3,3-dimethylazetidin-1-yl)acetamido)-2-methylpyridin-3-yl)-2-(1H-pyrrol-3-yl)pyrazolo[5,1-b]thiazole-7-carboxamide]
- IC50: 1.2 nM

SMILES: COc1ncccc1-c1cn2ncc(C(=O)Nc3cc(NC(=O)OCC(C)N4CCCC4)cnc3C)c2s1 (stereo not drawn) [Example 255, 2-(pyrrolidin-1-yl)propyl (5-(2-(2-methoxypyridin-3-yl)pyrazolo[5,1-b]thiazole-7-carboxamido)-6-methylpyridin-3-yl)carbamate]
- IC50: 9.3 nM
